The text below walks through data of patent publication US20250215012A1, “IKZF2 DEGRADERS AND USES THEREOF” (REGENTS OF THE UNIVERSITY OF MICHIGAN, priority 2022, published 2025).

This experiment has as its target IKZF2 (Homo sapiens (Human), UniProt Q96SW2+Q9UKS7). The experiment in a line: IKZF2 HiBiT Assay (Jurkat-IKZF2-HiBiT cell line). Type of experiment: cell-based. Particulars: Jurkat-IKZF2-HiBiT cells, 24 hours; for DC50: read-out: HiBit assay degradation analysis DC50; for Dmax: read-out: HiBit assay degradation analysis Dmax. The gist of the method:
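Jurkat cells carrying HiBiT-tagged IKZF2 were exposed to serially diluted compound for 24 h at 37 °C. Remaining IKZF2 was measured by Nano-Glo HiBiT lytic luminescence after 10-20 min at room temperature. Signal was normalized to DMSO, and IC50 came from a four-parameter variable-slope fit.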

Broadly, the DC50 is the concentration at which degradation of the target reaches its halfway point. A word on the Dmax: it is the largest share of the target that was removed.

Sequence of IKZF2 (Q9UKS7 whole entry): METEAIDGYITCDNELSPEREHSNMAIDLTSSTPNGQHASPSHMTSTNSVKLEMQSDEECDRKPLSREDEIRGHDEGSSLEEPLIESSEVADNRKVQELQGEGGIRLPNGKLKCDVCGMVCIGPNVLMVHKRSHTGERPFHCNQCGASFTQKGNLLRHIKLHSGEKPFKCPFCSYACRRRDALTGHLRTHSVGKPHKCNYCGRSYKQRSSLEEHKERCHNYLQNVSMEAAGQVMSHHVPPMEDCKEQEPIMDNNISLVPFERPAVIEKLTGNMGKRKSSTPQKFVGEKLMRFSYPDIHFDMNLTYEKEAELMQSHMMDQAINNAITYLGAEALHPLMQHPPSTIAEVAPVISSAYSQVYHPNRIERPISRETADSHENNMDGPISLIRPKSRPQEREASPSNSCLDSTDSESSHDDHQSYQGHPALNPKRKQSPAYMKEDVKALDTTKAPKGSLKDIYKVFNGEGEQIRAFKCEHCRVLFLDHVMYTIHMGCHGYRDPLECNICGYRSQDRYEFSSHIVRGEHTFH
Sequence of IKZF2 (Q96SW2 whole entry): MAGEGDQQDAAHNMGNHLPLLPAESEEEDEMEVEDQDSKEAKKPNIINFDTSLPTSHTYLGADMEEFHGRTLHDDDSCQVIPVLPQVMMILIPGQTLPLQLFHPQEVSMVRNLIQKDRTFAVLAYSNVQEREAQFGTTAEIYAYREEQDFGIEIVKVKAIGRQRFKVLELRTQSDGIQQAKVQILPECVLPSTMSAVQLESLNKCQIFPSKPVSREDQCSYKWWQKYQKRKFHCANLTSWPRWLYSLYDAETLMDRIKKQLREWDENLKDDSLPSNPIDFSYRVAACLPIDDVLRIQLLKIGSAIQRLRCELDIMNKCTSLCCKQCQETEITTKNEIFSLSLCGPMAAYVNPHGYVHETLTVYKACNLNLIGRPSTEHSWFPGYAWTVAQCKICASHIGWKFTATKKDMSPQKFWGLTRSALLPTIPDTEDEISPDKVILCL
Sequence of IKZF2 (Q16531 whole entry partner): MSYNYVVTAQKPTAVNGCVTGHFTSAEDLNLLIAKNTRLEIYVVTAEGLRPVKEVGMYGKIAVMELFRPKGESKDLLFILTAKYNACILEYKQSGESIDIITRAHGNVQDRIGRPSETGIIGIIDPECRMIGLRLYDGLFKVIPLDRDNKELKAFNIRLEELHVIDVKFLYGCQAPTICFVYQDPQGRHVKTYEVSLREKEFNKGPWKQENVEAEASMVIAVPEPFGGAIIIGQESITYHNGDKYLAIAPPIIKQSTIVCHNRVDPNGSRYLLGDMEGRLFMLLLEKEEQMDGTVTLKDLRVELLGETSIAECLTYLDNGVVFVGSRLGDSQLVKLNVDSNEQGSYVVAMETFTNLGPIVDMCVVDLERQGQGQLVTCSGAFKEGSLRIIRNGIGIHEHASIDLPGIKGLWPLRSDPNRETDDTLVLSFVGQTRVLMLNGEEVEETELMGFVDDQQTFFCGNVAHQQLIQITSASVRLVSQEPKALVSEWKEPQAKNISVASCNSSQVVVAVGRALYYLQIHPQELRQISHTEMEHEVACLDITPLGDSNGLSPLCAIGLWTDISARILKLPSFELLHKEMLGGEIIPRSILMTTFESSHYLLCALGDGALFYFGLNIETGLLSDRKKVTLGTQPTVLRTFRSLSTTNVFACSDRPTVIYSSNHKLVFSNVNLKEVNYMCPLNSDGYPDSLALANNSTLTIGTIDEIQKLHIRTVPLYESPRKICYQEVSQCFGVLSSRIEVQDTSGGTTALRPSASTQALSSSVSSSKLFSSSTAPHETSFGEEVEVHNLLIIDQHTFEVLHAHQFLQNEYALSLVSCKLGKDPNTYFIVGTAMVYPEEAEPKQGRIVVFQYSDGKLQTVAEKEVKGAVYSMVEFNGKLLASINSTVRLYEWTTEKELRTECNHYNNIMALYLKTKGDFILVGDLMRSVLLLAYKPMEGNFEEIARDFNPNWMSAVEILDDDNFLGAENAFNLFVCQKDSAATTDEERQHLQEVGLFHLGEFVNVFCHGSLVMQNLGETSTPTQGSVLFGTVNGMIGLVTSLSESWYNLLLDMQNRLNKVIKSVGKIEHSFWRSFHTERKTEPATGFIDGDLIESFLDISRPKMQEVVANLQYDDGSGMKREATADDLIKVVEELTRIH

`CS(=O)(=O)c1ccccc1CN1CCC2(CC1)COc1c2ccc2c1CN(C1CCC(=O)NC1=O)C2=O` (stereo not drawn) [Compound A234, 3-(1′-(2-(methylsulfonyl)benzyl)-6-oxo-6,8-dihydro-2H,7H-spiro[furo[2,3-e]isoindole-3,4′-piperidin]-7-yl)piperidine-2,6-dione]: the 50% degradation concentration (DC50) is more than 500 nM and the Dmax was less than 40%.
For `CS(=O)(=O)c1cccc(CN2CCC3(CC2)COc2c3ccc3c2CN(C2CCC(=O)NC2=O)C3=O)c1` (stereo not drawn) [Compound A235, 3-(1′-(3-(methylsulfonyl)benzyl)-6-oxo-6,8-dihydro-2H,7H-spiro[furo[2,3-e]isoindole-3,4′-piperidin]-7-yl)piperidine-2,6-dione], in that order: more than 500 nM and less than 40%.
In the case of `CS(=O)(=O)c1ccc(CN2CCC3(CC2)COc2c3ccc3c2CN(C2CCC(=O)NC2=O)C3=O)cc1` (stereo not drawn) [Compound A236, 3-(1′-(4-(methylsulfonyl)benzyl)-6-oxo-6,8-dihydro-2H,7H-spiro[furo[2,3-e]isoindole-3,4′-piperidin]-7-yl)piperidine-2,6-dione], the half-maximal degradation concentration (DC50) is more than 500 nM and the Dmax was less than 40%.
As for `O=C1CCC(N2Cc3c(ccc4c3OCC43CCN(Cc4cnn(Cc5ccc(F)cc5)c4)CC3)C2=O)C(=O)N1` (stereo not drawn) [Compound A237, 3-(1′-((1-(4-fluorobenzyl)-1H-pyrazol-4-yl)methyl)-6-oxo-6,8-dihydro-2H,7H-spiro[furo[2,3-e]isoindole-3,4′-piperidin]-7-yl)piperidine-2,6-dione], the DC50 lay within 50 to 200 nM and the maximal degradation (Dmax) lay within 60 to 80%.
The corresponding values for `O=C1CCC(N2Cc3c(ccc4c3OCC43CCN(Cc4cnn(Cc5cccc(F)c5)c4)CC3)C2=O)C(=O)N1` (stereo not drawn) [Compound A238, 3-(1′-((1-(3-fluorobenzyl)-1H-pyrazol-4-yl)methyl)-6-oxo-6,8-dihydro-2H,7H-spiro[furo[2,3-e]isoindole-3,4′-piperidin]-7-yl)piperidine-2,6-dione] are less than 50 nM and 60 to 80%.
The corresponding values for `O=C1CCC(N2Cc3c(ccc4c3OCC43CCN(Cc4cnn(Cc5ccccc5F)c4)CC3)C2=O)C(=O)N1` (stereo not drawn) [Compound A239, 3-(1′-((1-(2-fluorobenzyl)-1H-pyrazol-4-yl)methyl)-6-oxo-6,8-dihydro-2H,7H-spiro[furo[2,3-e]isoindole-3,4′-piperidin]-7-yl)piperidine-2,6-dione] are less than 50 nM and 60 to 80%.
The corresponding values for `O=C1CCC(N2Cc3c(ccc4c3OCC43CCN(Cc4cnn(Cc5ccccc5Cl)c4)CC3)C2=O)C(=O)N1` (stereo not drawn) [Compound A240, 3-(1′-((1-(2-chlorobenzyl)-1H-pyrazol-4-yl)methyl)-6-oxo-6,8-dihydro-2H,7H-spiro[furo[2,3-e]isoindole-3,4′-piperidin]-7-yl)piperidine-2,6-dione] are less than 50 nM and 60 to 80%.
On to `O=C1CCC(N2Cc3c(ccc4c3OCC43CCN(Cc4cnn(Cc5ccc(Cl)cc5)c4)CC3)C2=O)C(=O)N1` (stereo not drawn) [Compound A241, 3-(1′-((1-(4-chlorobenzyl)-1H-pyrazol-4-yl)methyl)-6-oxo-6,8-dihydro-2H,7H-spiro[furo[2,3-e]isoindole-3,4′-piperidin]-7-yl)piperidine-2,6-dione], for which the DC50 was less than 50 nM and the Dmax was 60 to 80%.
For `O=C1CCC(N2Cc3c(ccc4c3OCC43CCN(Cc4cnn(Cc5cccc(Cl)c5)c4)CC3)C2=O)C(=O)N1` (stereo not drawn) [Compound A242, 3-(1′-((1-(3-chlorobenzyl)-1H-pyrazol-4-yl)methyl)-6-oxo-6,8-dihydro-2H,7H-spiro[furo[2,3-e]isoindole-3,4′-piperidin]-7-yl) piperidine-2,6-dione], in that order: less than 50 nM and 60 to 80%.
On to `O=C1CCC(N2Cc3c(ccc4c3OCC43CCN(Cc4ccn(-c5ccc(Cl)cc5)n4)CC3)C2=O)C(=O)N1` (stereo not drawn) [Compound A243, 3-(1′-((1-(4-chlorophenyl)-1H-pyrazol-3-yl)methyl)-6-oxo-6,8-dihydro-2H,7H-spiro[furo[2,3-e]isoindole-3,4′-piperidin]-7-yl)piperidine-2,6-dione], for which the DC50 was in the range of 50 to 200 nM and the Dmax lay within 60 to 80%.
In the case of `O=C1CCC(N2Cc3c(ccc4c3OCC43CCN(Cc4cnn5c4CCC5)CC3)C2=O)C(=O)N1` (stereo not drawn) [Compound A244, 3-(1′-((5,6-dihydro-4H-pyrrolo[1,2-b]pyrazol-3-yl)methyl)-6-oxo-6,8-dihydro-2H,7H-spiro[furo[2,3-e]isoindole-3,4′-piperidin]-7-yl)piperidine-2,6-dione], the half-maximal degradation concentration (DC50) was 200 to 500 nM and the greatest degradation seen (Dmax) lay in the range of 60 to 80%.
Consider `O=C1CCC(N2Cc3c(ccc4c3OCC43CCN(Cc4cnn5c4CCCC5)CC3)C2=O)C(=O)N1` (stereo not drawn) [Compound A245, 3-(6-oxo-1′-((4,5,6,7-tetrahydropyrazolo[1,5-a]pyridin-3-yl)methyl)-6,8-dihydro-2H,7H-spiro[furo[2,3-e]isoindole-3,4′-piperidin]-7-yl)piperidine-2,6-dione], for which the DC50 was 200 to 500 nM and the greatest degradation seen (Dmax) lay within 40 to 60%.
As to `O=C1CCC(N2Cc3c(ccc4c3OCC43CCN(Cc4ccnn4-c4ccccc4)CC3)C2=O)C(=O)N1` (stereo not drawn) [Compound A246, 3-(6-oxo-1′-((1-phenyl-1H-pyrazol-5-yl)methyl)-6,8-dihydro-2H,7H-spiro[furo[2,3-e]isoindole-3,4′-piperidin]-7-yl)piperidine-2,6-dione], the 50% degradation concentration (DC50) is more than 500 nM and the Dmax was less than 40%.
The corresponding values for `CCOc1cc(CN2CCC3(CC2)COc2c3ccc3c2CN(C2CCC(=O)NC2=O)C3=O)ccn1` (stereo not drawn) [Compound A247, 3-(1′-((2-ethoxypyridin-4-yl)methyl)-6-oxo-6,8-dihydro-2H,7H-spiro[furo[2,3-e]isoindole-3,4′-piperidin]-7-yl)piperidine-2,6-dione] are more than 500 nM and less than 40%.
For `O=C1CCC(N2Cc3c(ccc4c3OCC43CCN(Cc4cncc(Cl)c4)CC3)C2=O)C(=O)N1` (stereo not drawn) [Compound A248, 3-(1′-((5-chloropyridin-3-yl)methyl)-6-oxo-6,8-dihydro-2H,7H-spiro[furo[2,3-e]isoindole-3,4′-piperidin]-7-yl)piperidine-2,6-dione], in that order: more than 500 nM and less than 40%.
On to `O=C1CCC(N2Cc3c(ccc4c3OCC43CCN(Cc4cccnc4Cl)CC3)C2=O)C(=O)N1` (stereo not drawn) [Compound A249, 3-(1′-((2-chloropyridin-3-yl)methyl)-6-oxo-6,8-dihydro-2H,7H-spiro[furo[2,3-e]isoindole-3,4′-piperidin]-7-yl)piperidine-2,6-dione], for which the 50% degradation concentration (DC50) is more than 500 nM and the greatest degradation seen (Dmax) was less than 40%.
The corresponding values for `O=C1CCC(N2Cc3c(ccc4c3OCC43CCN(Cc4ccnc(Cl)c4)CC3)C2=O)C(=O)N1` (stereo not drawn) [Compound A250, 3-(1′-((2-chloropyridin-4-yl)methyl)-6-oxo-6,8-dihydro-2H,7H-spiro[furo[2,3-e]isoindole-3,4′-piperidin]-7-yl)piperidine-2,6-dione] are more than 500 nM and less than 40%.
The corresponding values for `O=C1CCC(N2Cc3c(ccc4c3OCC43CCN(Cc4ccn(-c5ccccc5)n4)CC3)C2=O)C(=O)N1` (stereo not drawn) [Compound A251, 3-(6-oxo-1′-((1-phenyl-1H-pyrazol-3-yl)methyl)-6,8-dihydro-2H,7H-spiro[furo[2,3-e]isoindole-3,4′-piperidin]-7-yl)piperidine-2,6-dione] are more than 500 nM and less than 40%.
For `CCOc1cccc(CN2CCC3(CC2)COc2c3ccc3c2CN(C2CCC(=O)NC2=O)C3=O)n1` (stereo not drawn) [Compound A252, 3-(1′-((6-ethoxypyridin-2-yl)methyl)-6-oxo-6,8-dihydro-2H,7H-spiro[furo[2,3-e]isoindole-3,4′-piperidin]-7-yl)piperidine-2,6-dione], in that order: more than 500 nM and less than 40%.
For `O=C1CCC(N2Cc3c(ccc4c3OCC43CCN(Cc4nncn4-c4ccccc4)CC3)C2=O)C(=O)N1` (stereo not drawn) [Compound A253, 3-(6-oxo-1′-((4-phenyl-4H-1,2,4-triazol-3-yl)methyl)-6,8-dihydro-2H,7H-spiro[furo[2,3-e]isoindole-3,4′-piperidin]-7-yl)piperidine-2,6-dione], the half-maximal degradation concentration (DC50) is more than 500 nM and the Dmax was less than 40%.
Consider `O=C1CCC(N2Cc3c(ccc4c3OCC43CCN(Cc4ncnn4-c4ccccc4)CC3)C2=O)C(=O)N1` (stereo not drawn) [Compound A254, 3-(6-oxo-1′-((1-phenyl-1H-1,2,4-triazol-5-yl)methyl)-6,8-dihydro-2H,7H-spiro[furo[2,3-e]isoindole-3,4′-piperidin]-7-yl)piperidine-2,6-dione], for which the 50% degradation concentration (DC50) was more than 500 nM and the greatest degradation seen (Dmax) was less than 40%.
Regarding `O=C1CCC(N2Cc3c(ccc4c3OCC43CCN(Cc4ccnn4C4CCOCC4)CC3)C2=O)C(=O)N1` (stereo not drawn) [Compound A255, 3-(6-oxo-1′-((1-(tetrahydro-2H-pyran-4-yl)-1H-pyrazol-5-yl)methyl)-6,8-dihydro-2H,7H-spiro[furo[2,3-e]isoindole-3,4′-piperidin]-7-yl)piperidine-2,6-dione], the DC50 was more than 500 nM and the greatest degradation seen (Dmax) is less than 40%.
Turning to `Cn1cc(CN2CCC3(CC2)COc2c3ccc3c2CN(C2CCC(=O)NC2=O)C3=O)c(-c2ccccc2)n1` (stereo not drawn) [Compound A256, 3-(1′-((1-methyl-3-phenyl-1H-pyrazol-4-yl)methyl)-6-oxo-6,8-dihydro-2H,7H-spiro[furo[2,3-e]isoindole-3,4′-piperidin]-7-yl)piperidine-2,6-dione], the half-maximal degradation concentration (DC50) was more than 500 nM and the Dmax was less than 40%.
For `Cn1cc(CN2CCC3(CC2)COc2c3ccc3c2CN(C2CCC(=O)NC2=O)C3=O)c(Cl)n1` (stereo not drawn) [Compound A257, 3-(1′-((3-chloro-1-methyl-1H-pyrazol-4-yl)methyl)-6-oxo-6,8-dihydro-2H,7H-spiro[furo[2,3-e]isoindole-3,4′-piperidin]-7-yl)piperidine-2,6-dione], in that order: more than 500 nM and less than 40%.
